Each structure is given as a SMILES string.

Broadly, the IC50 is the concentration that inhibits the measured activity by half.

Assay [1] deals with ex vivo stimulated LTB4 production. The assay can be described thus: Murine arachidonic acid-induced inflammation model: ex vivo stimulated LTB4 production in blood. Details: species or system female Balb/c mice. Conditions: 30 mg/kg oral gavage, blood taken 3 h after arachidonic acid, ex vivo A23187 stimulation, vs animals without inhibitor. On the procedure: Murine arachidonic acid-induced inflammation model
LTA4H inhibitor compounds of the present invention were dissolved in 20% cyclodextran/H2O at a concentration of 3 mg/mL. The solutions were administered by oral gavage to female Balb/c mice weighing approximately 20 grams each (0.2 mL per mouse, 30 mg of LTA4H inhibitor compound per kg). Sixty minutes after being administered an LTA4 inhibitor, each mouse received topical application of 20 μL of arachidonic acid (100 mg/mL in acetone) to the left ear and 20 μL of acetone only to the right ear. After 3 h, the mice were sacrificed, blood was withdrawn in heparinized syringes, and 8 mm ear biopsies were taken. […]
One hundred-microliter aliquots of heparinized blood were added to wells of a microtiter plate, along with equal volumes of RPMI-1640 medium, and calcium ionophore A23187 was added to each sample well (final concentration=20 ng/μL). […] Supernatants were analyzed for LTB4 by a commercially available enzyme-linked immunoassay (Cayman Chemical Co.) in accordance with the manufacturer's instructions. The percent inhibition of ex vivo stimulated LTB4 production (% Inh. LTB4) was determined by comparison to animals treated identically except that the solution admininstered by oral gavage was devoid of inhibitor compound.

The test system of assay [2] is ionophore-induced LTB4 production. Conditions: oral administration; cited from earlier work.
Assay [3] shares this test system. Conditions: oral administration; cited from earlier work. The source holds these as a separate data set.
Assay [4] deals with atopic dermatitis. Conditions: small open-label trial in AD; cited from earlier work.
The subject of assay [5] is pruritus. Conditions: human, in vivo; cited from earlier work.
Assay [6] concerns LTB4 production in murine whole blood (LTA4H). The assay can be described thus: LTB4 production by calcium ionophore-stimulated murine blood for LTA4H inhibitor activity. It counts as cell-based, CD-1 mice. Conditions: CD-1 mouse blood diluted 1:15, calcium ionophore A23187 20 ng/mL, LTB4 by enzyme-linked immunoassay.
Assay [7] deals with neutrophil influx (myeloperoxidase, MPO). The assay can be described thus: Murine arachidonic acid-induced inflammation model: neutrophil influx in ear (myeloperoxidase activity). It counts as in vivo, female Balb/c mice. Conditions: Mus musculus, 30 mg/kg oral gavage 60 min before topical arachidonic acid, ear biopsy after 3 h, vs animals without inhibitor. On the procedure: Murine arachidonic acid-induced inflammation model LTA4H inhibitor compounds of the present invention were dissolved in 20% cyclodextran/H2O at a concentration of 3 mg/mL. The solutions were administered by oral gavage to female Balb/c mice weighing approximately 20 grams each (0.2 mL per mouse, 30 mg of LTA4H inhibitor compound per kg). Sixty minutes after being administered an LTA4 inhibitor, each mouse received topical application of 20 μL of arachidonic acid (100 mg/mL in acetone) to the left ear and 20 μL of acetone only to the right ear. After 3 h, the mice were sacrificed, blood was withdrawn in heparinized syringes, and 8 mm ear biopsies were taken. Ear biopsies were weighed to determine edema and then frozen at -80° C. until needed for determination of neutrophil influx. Neutrophil influx was quantified by measuring the activity of myeloperoxidase (MPO), a neutrophil-specific enzyme. […] Debris was removed by centrifugation at 14000×g for 10 min. […] The microtiter plate contents were held at room temperature for 1 h. […] H2SO4 to each sample well, and the myeloperoxidase activity in each sample was determined from the absorbance at 405 nm. […] The percent inhibition of neutrophil influx (% Inh. MPO) by compounds of the invention was determined by comparison to animals treated identically, except that the solution administered by oral gavage was devoid of inhibitor compound.

For the compound `O=C(O)C1CCN(Cc2ccc(Oc3nc4ccccc4s3)cc2)CC1` [Example 250, 1-[4-(Benzothiazol-2-yloxy)-benzyl]-piperidine-4-carboxylic acid], in assay [1], the “% Inh. LTB4” value amounted to 80%.
Consider `CN(CCCOc1ccc(Cc2ccccc2)cc1)CCC(=O)O.Cl` [SC57461], for which, in assay [2], the “ionophore-induced LTB4 production in rat peritoneum in vivo” value is given as “caused inhibition”. The “ionophore-induced LTB4 production in mouse blood ex vivo” value in assay [3] is listed as “caused inhibition”.
On to `CC(c1cc2ccccc2s1)N(O)C(N)=O` (centres unmarked) [zileuton], for which the “effects in atopic dermatitis” value in assay [4] is reported as “beneficial effects”. For the same compound, the “pruritus in Sjögren-Larsson syndrome patients” value in assay [5] is on record as “relieving the pruritus”.
Regarding `CC(C)N(CCC(=O)O)CCc1ccc(Oc2nc3ccccc3s2)cc1` [Example 180, 3-({2-[4-(Benzothiazol-2-yloxy)-phenyl]-ethyl}-isopropyl-amino)-propionic acid], the half-inhibitory concentration (IC50) in assay [6] stood at 15 nM. Besides, the inhibition at 30 mg/kg in assay [1] (Mus musculus, read-out: % Inh. LTB4) was determined as 87%; in assay [7], 87%.

These data come from US20080194630A1, “LTA4H modulators and uses thereof” (priority 2007, published 2008).
